Test results: US20240352430A1, “FoF1-ATP SYNTHASE OLIGOMER” (KYOTO UNIVERSITY, priority 2021, published 2024)

B1: IF1: ATP synthase inhibitory factor subunit 1, an endogenous inhibitory protein of a mammalian ATP synthase (protein, UniProt Q9UII2 26-106, looked up)
ATPase inhibitor, …: GSDQSENVDRGAGSIREAGGAFGKREQAEEERYFRAQSREQLAALKKHHEEEIVHHKKEIERLQKEIERHKQKIKMLKHDD

Target: T1, FoF1-ATP synthase of cultured cells derived from human (HEK293) (Homo sapiens, UniProt P05496)
T1 construct: fractions containing cultured cell FoF1-ATP synthase obtained by the first centrifugation; endogenous in cells; host or cells: HEK293 (enzyme solubilised with GDN from the mitochondrial inner membrane and fractionated on sucrose density gradients)
Assay: ATP hydrolysis activity, change in absorbance at 340 nm by NADH oxidation
Assay type: biochemical
From the text: The FoF1-ATP synthase oligomer of the present invention has, in one embodiment, ATP synthesis activity or hydrolysis activity. These activities can be determined by methods well known to those skilled in the art. For example, ATP synthesis activity can be determined by using a luminescent reaction of the luciferin/luciferase system to determine the generated ATP. In addition, ATP hydrolysis activity can be determined based on absorbance changes at 340 nm by conjugating the hydrolysis reaction of ATP and the oxidation reaction from NADH (nicotinamide adenine dinucleotide) to NAD^+ in the presence of phosphoenolpyruvic acid, pyruvate kinase, and lactate dehydrogenase.
ATP hydrolysis activity of the fractions containing cultured cell FoF1-ATP synthase obtained by the first centrifugation under discontinuous density gradient of sucrose was determined. That is, the hydrolysis reaction of ATP with FoF1-ATP synthase was determined at 20° C. as change in absorbance at 340 nm by oxidation from NADH to NAD^+ conjugated with this reaction.
ATP hydrolysis activity of the samples contained in fraction 6-1 was determined in the same manner as described above in the presence or absence of oligomycin.
ATP hydrolysis activity of the samples collected from fraction 7 containing FoF1-ATP synthase tetramer and dimer was determined in the presence or absence of oligomycin, as in Example 1. If IF1, an endogenous inhibitory protein of mammalian ATP synthase, binds to FoF1-ATP synthase, the enzyme reaction is stopped. In order to release from FoF1-ATP synthase, samples collected from fraction 7 were mixed with 330 mM KCl and 100 mM Tris-HCl (pH 8.2). After incubation for 10 minutes at room temperature, ATP hydrolysis activity was determined. IF1 forms a dimer, binds between two FoF1-ATP synthase dimers, and stops the rotation of F1 present outside the membrane. As a result, ATP synthesis of the enzyme is stopped. Oligomycin binds to Fo of FoF1-ATP synthase and inhibits ATP synthesis.

Molecule | ATP hydrolysis activity of the sample contained in fraction 6-1 in the presence of oligomycin (fraction 6-1 of first discontinuous sucrose density gradient centrifugation, HEK293, 20° C., FIG. 7) | ATP hydrolysis activity of the sample of fraction 7 in the presence of oligomycin (fraction 7 of third continuous sucrose density gradient centrifugation, HEK293, regardless of treatment to release IF1, FIG. 12) | Enzyme inhibition of the ATP synthase contained in fraction 7 by IF1 (fraction 7, third centrifugation, activity compared with and without treatment to release IF1 (330 mM KCl, 100 mM Tris-HCl pH 8.2, 10 minutes), FIG. 12)
CC[C@H]1/C=C/C=C/C[C@@H](C)[C@H](O)[C@@](C)(O)C(=O)[C@@H](C)[C@H](O)[C@@H](C)C(=O)[C@@H](C)[C@H](O)[C@@H](C)/C=C/C(=O)O[C@@H]2[C@H](C)[C@H](CC1)O[C@]1(CC[C@H](C)[C@H](C[C@@H](C)O)O1)[C@H]2C [oligomycin] | inhibited | did not exhibit ATP hydrolysis activity | –
B1 | – | – | undergoes enzyme inhibition by IF1
